Data: article PMC8321398, “The discovery of a novel series of compounds with single-dose efficacy against juvenile and adult Schistosoma species” (PLoS Neglected Tropical Diseases, 2021)
Like-named read-outs stand apart in the source and are kept apart here.

Tests used:
[1] = Human dose prediction with the PK Tool; settings: for human single oral dose prediction: PK Tool, predicted plasma conc at 24 h 7 fold above calculated adult worm blood potency
Source text: • We assume that the plasma concentration achieved in mouse sufficient to kill worms is the same as the plasma concentration we need to achieve in humans to see the same effect. A component element is an assumption that the mechanism of S. mansoni worm reduction in mouse and human are the same. • We assume that allometric scaling can be used to estimate human clearance based on mouse clearance. One factor that would make this assumption unsafe is if the clearance mechanisms and rates for our series in mouse and human were different. Fortunately, in vivo clearance correlates well with metabolic stability calculated from in vitro mouse hepatocyte measurements (Fig 7A). In vitro stability estimates in mouse and human hepatocytes are also fairly well correlated (Fig 7B).
Estimates of dose prediction in human were made using the PK Tool. A simple estimate of an effective human dose for LSHTM-3520 can be made by making the assumption that a plasma concentration of 2,000 ng/mL 24 h after oral administration (the same as that achieved in Fig 6B) would give sufficient clinical efficacy. […] To design compounds with a lower predicted human dose we pursued two strategies, one to improve potency by optimisation of the core and substituents, the other to decrease clearance through blocking positions we thought likely to be vulnerable to metabolic enzymes and/or conformational restriction.
Assuming linear kinetics the plasma levels scaled from the low-dose oral PK experiment (2.5 mg/kg) for LSHTM-3520 (8 ng/mL) after 24 h would be 160 ng/mL from […] and 640 ng/mL at […].

S. haematobium adult = experiment: In vitro adult S. haematobium worm assay; type: cell-based; settings: for EC50: Schistosoma haematobium, S. haematobium, 120 h incubation, read-out: Sh adult EC50; for Potency ratio Sh/Sm: adult EC50 S. haematobium / S. mansoni
Source text: The Puerto Rican strain of S. mansoni was maintained in Biomphalaria glabrata and CD1 mice. Oncomelania hupensis (hupensis) infected with S. japonicum (Chinese strain) and Bulinus truncatus (truncatus) infected with Egyptian strain S. haematobium were obtained from BEI Resources, NIAID, NIH. Infection of mice for worm recovery was as previously described except that, whereas cercariae of S. mansoni and S. haematobium were obtained by shedding from infected snails under lights, cercariae of S. japonicum were obtained by gently crushing the snails. Furthermore, adult S. haematobium were recovered after 12 weeks following mouse infection.
In vitro efficacy was carried out as previously described. In brief, worms were recovered from infected mice by portal perfusion 3 weeks (for juveniles) or 6 weeks (for adults) post-infection using warm perfusion medium (Dulbecco’s Modified Eagle’s Medium [DMEM], 2mM L-glutamine, 100 Units/ml penicillin, 100μg/ml streptomycin, 20mM Hepes, 10 Units/ml heparin [Sigma, UK]). Worms were washed free of red blood cells using the perfusion medium, and finally suspended in complete medium (cDMEM: DMEM, 2mM L-glutamine, 100 Units/ml penicillin, 100μg/ml streptomycin, 10% FCS). The juvenile assays were carried out in 96-well plates, each well containing 6–8 worms in 200 μL cDMEM. The adult worm assay was in 24-well plates, each well containing 3 worm pairs in 1mL cDMEM. Both the juvenile and adult worm cultures were kept at 37° C, in an atmosphere of 5% CO2. Drug effects were determined on day 5 following drug treatment by assessing the viability of individual worms as described in [14].

[2] = test system: S. mansoni juvenile worms; experiment: In vivo efficacy, mouse model of juvenile (21-day old) S. mansoni infection; settings: for efficacy in vivo against juvenile worm infection: 21-day old infections, single oral dose, Aqueous formulation (Fig 8); for Worms remaining: Juvenile infection; for in vivo EC50 against juvenile worms: mouse model, single oral dose (Fig 9C); for clearing juvenile worm infections in vivo: 12.5 mg/kg oral single dose (Fig 9D); for worm reduction: juvenile worms
Procedure: (§1) Prior to in vivo efficacy experiments, a single animal was given a dose of drug (using the same formulation) that was twice as large as that planned for use in the efficacy experiments and was observed periodically for adverse clinical signs for 24h by trained veterinarians. Adverse clinical signs checked include postural defect, vocalization, oculo-nasal discharge, hypersalivation, change in activity, abnormal gait, respiration and pulse, piloerection, loss of pupillary reflex, eyelid reflex, chromodacryorrhea, reaction to handling, tremor, convulsions, prostration, diarrhoea, cachexia, emaciation. […] In vivo efficacy was assessed in female CD1 mice using methods based on those previously described. Mice were infected subcutaneously with 150 cercariae. Test compounds were suspended in 7% Tween-80 / 3% Ethanol / double distilled water and drug dispersal was facilitated by vortexing and using a sonicating water bath (Formulation “Aqueous”). Alternatively, drugs were first dissolved in DMSO, then diluted with corn oil to give a 1:19 DMSO:corn oil solution/suspension of test compound (Formulation “Corn oil”). Dosing was by oral gavage. Mice in the negative control groups were given the drug suspension vehicle only. Positive controls for treatment of adult, day 42 old, infections were treated with PZQ and those for juvenile, day 21 old, infections with artemether, which unlike PZQ is effective against the juvenile worm infections in mice. During and following treatment, mice were closely observed for any ill effects by staff experienced in animal handling. This involved individuals who were blinded to the treatment groups. Effects they were trained to look for included hunching, immobility, piloerection, subdued behaviour, diarrhoea and loss of body condition. None were seen. Worms were recovered by portal perfusion with citrate saline 8–14 days post treatment and counted. Differences between groups relative to the non-drug treated controls were assessed for statistical significance by Student’s unpaired t-test using GraphPad Prism Software. P values are presented as follows:- ns–P > 0.05 (not significant), * P ≤ 0.05, ** P ≤ 0.01, *** P ≤ 0.001, **** P ≤ 0.0001.
(§2) For pharmacokinetic analysis during the in vivo efficacy experiments individual animals were only sampled once. Samples were taken from one animal in each experimental group at each of 1, 4, 8 h and samples from two animals in each group were taken at 24 h.

[3] = as above; settings: female, CD1, plasma, mouse, Juvenile infection, read-out: Plasma conc @24 h (efficacy experiment)
Procedure: as §1, §2

[4] = Metabolic stability in mouse hepatocytes; type: in vitro ADME; settings: hepatocytes (suspension); for remaining at 0.5 h, 1 µM: pH 7.4, 30 min incubation, read-out: Mouse hepatocyte % remaining at 30 min; for remaining at 1.5 h, 1 µM: pH 7.4, 90 min incubation, read-out: Mouse hepatocyte % remaining at 90 min
Procedure: 100 μM compound stock solution was prepared from 5 μL of 4 mM stock in DMSO + 195 μL MeCN. Working solution (2 μM compound) was prepared using 10 μL of 100 μM stock + 490 μL buffer pH 7.4 (KHB supplemented with CaCl2, NaHCO3, HEPES, fructose, glycine; pH 7.4).
Working solution (25 μL, 2 μM) was added in duplicate to wells in a 0.5 mL per well, 96 well plate which was preincubated to reach 37°C. Hepatocyte suspension (25 μL) was added to each plate, and the plate incubated (37°C, 95% relative humidity with 5% CO2 supply) under gentle mixing (Thermomixer @300 rpm). After designated time periods, ice-cold MeCN (250 μL) was added with a suitable standard. For T = 0 min, ice-cold MeCN (250 μL) with suitable standard was added to the working solution (2 μM) and hepatocyte suspension (25 μL) added. The plates for each time point were shaken, sonicated for 5 mins and kept at 4°C until the final plate was processed. The plates were centrifuged at 4,000 rpm for 20 min, supernatant (110 μL) was mixed with water (110 μL) and the samples analysed using LC-MS/MS.

[5] = mouse, oral 50 mg/kg, formulation Aq
[6] = mouse, oral 12.5 mg/kg, formulation corn oil
[7] = oral 12.5 mg/kg, formulation corn oil

SMILES	human single oral dose prediction [1] [mg/kg]	EC50 (S. haematobium adult) [nM]	Potency ratio Sh/Sm (S. haematobium adult)	efficacy in vivo against juvenile worm infection ([2]; mouse)	Worms remaining [2, 5] [%]	concentration at 24 h ([3]; oral 50 mg/kg, formulation Aq) [ng/mL]	remaining at 0.5 h, 1 µM [4] [%]	remaining at 1.5 h, 1 µM [4] [%]	in vivo EC50 against juvenile worms [2]	clearing juvenile worm infections in vivo ([2]; mouse)	Worms remaining [2, 6] [%]	concentration at 24 h [3, 7] [ng/mL]	other results
CC(C)c1nc2cnc(-c3ccc(F)c(C(F)(F)F)c3)cn2c1-c1c(F)cc(O)cc1F [LSHTM-3520]	25	17.9	0.4	effective	62	208	65	44	–	–	–	–	predicted single human oral dose (simple estimate) ([1]; target 2,000 ng/mL at 24 h, allometric scaling from mouse, exponent 0.75): 48 mg/kg; Worms remaining ([2]; mouse, oral 200 mg/kg, formulation Aq): 16%; concentration at 24 h ([3]; oral 200 mg/kg, formulation Aq): 1980 ng/mL; half-life at 1 µM ([4]; pH 7.4, calculated from % remaining): 1.25 h
CC(C)c1nc2cnc(-c3ccc(F)c(C(F)(F)F)c3)cn2c1-c1ccc2[nH]ncc2c1F [LSHTM-3604]	6	–	–	effective	12	505	89	80	–	–	–	–	Worms remaining ([2]; mouse, oral 25 mg/kg, formulation corn oil): 13%; concentration at 24 h ([3]; oral 25 mg/kg, formulation corn oil): 223 ng/mL
Fc1c(-c2c(C(F)(F)F)nc3cnc(-c4cccc(C(F)(F)C(F)(F)F)c4)cn23)ccc2[nH]ncc12 [LSHTM-3608]	2.5	9.3	0.6	–	–	–	–	88	below 6.25 mg/kg	extremely effective	0	879	worm reduction ([2]; mouse, single oral dose 12.5 mg/kg): 100%
Fc1ccc(-c2cn3c(-c4ccc5[nH]ncc5c4F)c(C(F)(F)F)nc3cn2)cc1C(F)(F)F [LSHTM-3642, 3-(4-fluoro-1H-indazol-5-yl)-6-(4-fluoro-3-(trifluoromethyl)phenyl)-2-(trifluoromethyl)imidazo[1,2-a]pyrazine]	20	23	–	–	–	–	–	90	–	–	5	1320	Worms remaining ([2]; mouse, oral 25 mg/kg, formulation Aq): 1.8%; concentration at 24 h ([3]; oral 25 mg/kg, formulation Aq): 1700 ng/mL
Fc1ccc(-c2cn3c(-c4ccc5[nH]ncc5c4F)c(C(F)(F)F)nc3cn2)cc1C(F)(F)C(F)(F)F [LSHTM-3645]	3.5	6.5	0.7	–	–	–	–	94	below 6.25 mg/kg	extremely effective	0	984	Worms remaining ([2]; mouse, oral 6.25 mg/kg, formulation corn oil): 1.8%; worm reduction ([2]; mouse, single oral dose 6.25 mg/kg): 98%; concentration at 24 h ([3]; oral 6.25 mg/kg, formulation corn oil): 708 ng/mL
CC(C)c1cc(-c2cn3c(-c4ccc5[nH]ncc5c4F)c(C4CC4)nc3cn2)ccc1F [LSHTM-3686]	1	3.7	0.7	–	–	–	–	75	–	–	–	–	Worms remaining ([2]; mouse, oral 6.25x2 mg/kg (12 h apart), formulation corn oil): 25%; worm burden reduction ([2]; mouse, juvenile infection, 6.25 mg/kg given twice 12 h apart): 75%; concentration at 24 h ([3]; oral 6.25x2 mg/kg (12 h apart), formulation corn oil): 37.2 ng/mL
